From US6852723B2, “Aralkyl substituted piperazine compounds” (CV Therapeutics, Inc., priority 2000, dated 2005)

Key:
[1] = system: mitochondrial fatty acid oxidation using palmitoyl CoA as substrate; assay: Palmitoyl CoA oxidation in isolated rat heart mitochondria (14C bicarbonate trapped); type: biochemical; settings: 15 min at 30° C.
Method: (§1) Rat heart mitochodria were isolated by the method of Nedergard and Cannon (Methods in Enzymol. 55, 3, 1979).
(§2) Palmitoyl CoA oxidation—The Palmitoyl CoA oxidation was carried out in a total volume of 100 microliters containing the following agents: 110 mM KCl, 33 mM Tris buffer at pH 8, 2 mM KPi, 2 mM MgCl2, 0.1 mM EDTA, 14.7 microM defatted BSA, 0.5 mM malic acid, 13 mM carnitine, 1 mM ADP, 52 micrograms of mitochondrial protein, and 16 microM 1-C14 palmitoyl CoA (Sp. Activity 60 mCi/mmole; 20 microCi/ml, using 5 microliters per assay). The compounds of this invention were added in a DMSO solution at the following concentrations: 100 microM, 30 microM, and 3 microM. In each assay, a DMSO control was used. After 15 min at 30° C., the enzymatic reaction was centrifuged (20,000 g for 1 min), and 70 microliters of the supernatant was added to an activated reverse phase silicic acid column (approximately 0.5 ml of silicic acid). The column was eluted with 2 ml of water, and 0.5 ml of the eluent was used for scintillation counting to determine the amount of C^14 trapped as C^14 bicarbonate ion. The data are presented as % activity of control.

[2] = Metabolic stability in human liver S-9 fractions (LC/MS of parent remaining); settings: for Liver S-9 stability factor: % parent remaining after 30 min at 37 C divided by average % ranolazine remaining (57%), 10 μM compound, 2 mg/mL S9
Method: Metabolic Stability: As a measure of metabolic stability the compounds of this invention were incubated with human liver S-9 microsomal fractions. After, 30 minutes at 37 C., the amount of parent drug remaining was determined using LC-mass spec. The response factors for each compound was determined by establishing a standard curve and using an internal standard during the analysis of the samples. […] The compounds of this invention were assayed as described in the protocol below and the percentage of parent remaining was divided by the average % of ranolazine remaining (57%) affording a metabolic stability factor.
The purpose of this experiment is to compare the percentages remaining for compounds of this invention with the percentage remaining for ranolazine after 30 minutes of incubation with human liver S9 fractions.
The following reagents were used; Potassium phosphate, 0.5M pH 74. (incubation buffer), kept at room temperature; 0.05M MgCl2 kept at 4° C.; β-Nicotinamide adenine dinucleotide phosphate, tetrasodium salt, reduced form (NADPH), 0.02M solution in water (˜16.6 mg/mL) from Sigma Lot # 79H7044 prepared on day of use.
Incubation mixtures were prepared as follows:
Combine all components with incubation buffer and re-pipette 200 μL/tube+25 μL of the compound being tested along with 25 μL of S-9.
After 5 min of pre-incubation at 37° C., at 0 and 30 min after starting the reaction, a 50 μl aliquot of the incubation mixture was removed and added to 100 μL of 9:1 acetonitrile: methanol containing the internal standard.
The mixture was centrifuged and a 100 μL aliquot of the supernatant was diluted in 1 mL of solvent C (0.1% Formic Acid in water). Then samples were analyzed for change between the ratio of compound to internal standard at time zero and 30 minutes by LC/MS (injected 10 μL).
Samples were analyzed for the starting compounds and potential metabolite/s by LC/MS using an internal standard on a Micromass platform mass spec with a Keystone Inc. BDS ODS-C18 column with a flow rate of 0.25 ml/min.

[3] = system: mitochondrial fatty acid oxidation using palmitoyl carnitine as substrate; assay: Palmitoyl carnitine oxidation in isolated rat heart mitochondria (14C bicarbonate trapped); type: biochemical; settings: 15 min at 30° C.
Method: as §1
as §2, with “Carnitine Oxidation—The” for “CoA oxidation—The”, “carnitine” for “CoA”, “0.1mg/ml of” for “14.7 microM”, “3” for “13 mM carnitine, 1”, “43” for “16”

Cc1cccc(C)c1NC(=O)CN1CCN(CC(O)CCc2ccc(C(C)(C)C)cc2)CC1 (stereo not shown) [Compound 19, 2-(4-{4-[4-(tert-butyl)phenyl]-2-hydroxybutyl}piperazinyl)-N-(2,6-dimethylphenyl)acetamide]
Palmitoyl CoA oxidation activity (% of DMSO control) ([1]; 100 μM compound): 35%

Cc1cccc(C)c1NC(=O)CN1CCN(CC(O)CCc2ccccc2)CC1 (stereo not shown) [Compound 9, N-(2,6-dimethylphenyl)-2-[4-(2-hydroxy-4-phenylbutyl)piperazinyl]acetamide]
Palmitoyl CoA oxidation activity (% of DMSO control) ([1]; 30 μM compound): 84%
Palmitoyl CoA oxidation activity (% of DMSO control) ([1]; 100 μM compound): 84%
Liver S-9 stability factor [2]: 1.18

COc1ccccc1CC(O)CN1CCN(CC(=O)Nc2c(C)cccc2C)CC1 (stereo not shown) [Compound 10, N-(2,6-dimethylphenyl)-2-{4-[2-hydroxy-3(2-methoxyphenyl)-propyl]piperazinyl}acetamide]
Liver S-9 stability factor [2]: 1.03

COc1cc(CC(O)CN2CCN(CC(=O)Nc3c(C)cccc3C)CC2)cc(OC)c1OC (stereo not shown) [Compound 24, N-(2,6-dimethylphenyl)-2-{4-[2-hydroxy-3-(3,4,5-trimethoxyphenyl)prophyl]piperazinyl}acetamide]
Palmitoyl CoA oxidation activity (% of DMSO control) ([1]; 100 μM compound): 72%
Liver S-9 stability factor [2]: 1.05

Cc1cccc(C)c1NC(=O)C(C)(C)N1CCN(CC(O)Cc2ccc3c(c2)OCO3)CC1 (stereo not shown) [Compound 22]
Liver S-9 stability factor [2]: 1.49

Cc1cccc(C)c1NC(=O)CN1CCN(CC(O)Cc2cccc3ccccc23)CC1 (stereo not shown) [Compound 13, N-(2,6-dimethylphenyl)-2-[4-(2-hydroxy-3-naphthylpropyl)piperazinyl]acetamide]
Liver S-9 stability factor [2]: 0.10

Cc1cccc(C)c1NC(=O)CN1CCN(CC(O)Cc2ccc3c(c2)OCO3)CC1 (stereo not shown) [Compound 7, 2-[4-(3-Benzo[1,3]dioxol-5-yl-2-hydroxy-propyl)-piperazin-1-yl]-N-(2,6-dimethyl-phenyl)-acetamide]
Liver S-9 stability factor [2]: 1.46

COc1ccccc1OCC(O)CN1CCN(CC(=O)Nc2c(C)cccc2C)CC1 (racemic) [Ranolazine, (±)-N-(2,6-dimethylphenyl)-4-[2-hydroxy-3-(2-methoxyphenoxy)-propyl]-1-piperazineacetamide, reference compound]
Palmitoyl CoA oxidation activity (% of DMSO control) ([1]; 30 μM compound): 90%
Palmitoyl CoA oxidation activity (% of DMSO control) ([1]; 100 μM compound): 75%
Mitochondrial palmitoyl carnitine oxidation, % activity of DMSO control ([3]; 30 μM compound): 98%
Mitochondrial palmitoyl carnitine oxidation, % activity of DMSO control ([3]; 100 μM compound): 63%
Liver S-9 stability factor [2]: 1.0
percentage of ranolazine remaining at the 30 minute time point ([2]; human liver S-9, 30 minutes at 37 C, average of five experiments): 57%

Cc1cccc(C)c1NC(=O)CN1CCN(CC(O)CCc2ccccc2F)CC1 (stereo not shown) [Compound 20, N-(2,6-dimethylphenyl)-2-{4-[4-(2-fluorophenyl)-2-hydroxybutyl]piperazinyl}acetamide]
Palmitoyl CoA oxidation activity (% of DMSO control) ([1]; 100 μM compound): 56%

Cc1cccc(C)c1NC(=O)CN1CCN(CC(O)CCc2c(F)cccc2F)CC1 (stereo not shown) [Compound 17, 2-{4-[4-(2,6-difluorophenyl)-2-hydroxybutyl]piperazinyl}-N-(2,6-dimethylphenyl)acetamide]
Palmitoyl CoA oxidation activity (% of DMSO control) ([1]; 100 μM compound): 78%
Liver S-9 stability factor [2]: 0.71

COc1ccc(CCC(O)CN2CCN(CC(=O)Nc3c(C)cccc3C)CC2)cc1 (stereo not shown) [Compound 16, N-(2,6-dimethylphenyl)-2-{4-[4-(4-methoxyphenyl)-2-hydroxybutyl]piperazinyl}acetamide]
Palmitoyl CoA oxidation activity (% of DMSO control) ([1]; 100 μM compound): 37%

Cc1cccc(C)c1NC(=O)CN1CCN(CC(O)CCc2ccc(C(F)(F)F)cc2)CC1 (stereo not shown) [Compound 21, N-(2,6-dimethylphenyl)-2-(4-{2-hydroxy-4-[4-(trifluoromethyl)phenyl]butyl}piperazinyl)acetamide]
Palmitoyl CoA oxidation activity (% of DMSO control) ([1]; 100 μM compound): 56%

Cc1cccc(C)c1NC(=O)CN1CCN(CC(O)CCc2ccccc2Cl)CC1 (stereo not shown) [Compound 18, N-(2,6-dimethylphenyl)-2-{4-[4-(2-chlorophenyl)-2-hydroxybutyl]piperazinyl}acetamide]
Palmitoyl CoA oxidation activity (% of DMSO control) ([1]; 100 μM compound): 78%
Liver S-9 stability factor [2]: 0.68

Cc1cccc(C)c1NC(=O)C(C)(C)N1CCN(CC(O)Cc2ccccc2)CC1 (stereo not shown) [Compound 23, N-(2,6-Dimethyl-phenyl)-2-[4-(2-hydroxy-3-phenyl-propyl)-piperazin-1-yl]-isobutyramide]
Liver S-9 stability factor [2]: 0.5

Cc1cccc(C)c1NC(=O)CN1CCN(CC(O)Cc2ccccc2)CC1 (stereo not shown) [Compound 12, N-(2,6-dimethylphenyl)-2-{4-[2-hydroxy-3-phenylpropyl]piperazinyl}acetamide]
Palmitoyl CoA oxidation activity (% of DMSO control) ([1]; 30 μM compound): 95%
Palmitoyl CoA oxidation activity (% of DMSO control) ([1]; 100 μM compound): 42%
Mitochondrial palmitoyl carnitine oxidation, % activity of DMSO control ([3]; 100 μM compound): 56%
Liver S-9 stability factor [2]: 1.38

COc1ccc(CC(O)CN2CCN(CC(=O)Nc3c(C)cccc3C)CC2)cc1 (stereo not shown) [Compound 11, N-(2,6-dimethylphenyl)-2-{4-[2-hydroxy-3-(4-methoxyphenyl)propyl]piperazinyl}acetamide]
Palmitoyl CoA oxidation activity (% of DMSO control) ([1]; 30 μM compound): 92%
Palmitoyl CoA oxidation activity (% of DMSO control) ([1]; 100 μM compound): 83%
Liver S-9 stability factor [2]: 1.33
